Values joined by “and” are separate entries in the source; they are usually repeats but may differ in a detail not shown here. Equal entries are not always repeated. Where two headings read alike, the source gives them in different places.
How the values were obtained:
[1] = system: SARS2; format: cell-based, SARS-CoV-2; conditions: for Infection Data, Percentage Infection Relative to Appropriate DMSO Control with Avg Background Subtraction: duplicate wells, listed as SICLS61; for Infection Data, Average, Mean (Percentage Infection Relative to Appropriate DMSO Control): average of Exp 1 and Exp 2, n=4; for Percentage Inhibition Average 1 μM / Screening data (Relative infection to DMSO controls) Average 1 μM: SARS2, 1 μM; for Screening data (Relative infection to DMSO controls) Average 1 μM / Screening data (Relative infection to DMSO controls) Average 5 μM / Screening data (Relative infection to DMSO controls) Average 10 μM / Screening data (Relative infection to DMSO controls) Average 25 μM / Screening data (Relative infection to DMSO controls) Average 50 μM / Average (relative infection to DMSO over the 5 tested concentrations): 100=DMSO control; for Percentage Inhibition Average 5 μM / Screening data (Relative infection to DMSO controls) Average 5 μM: SARS2, 5 μM; for Percentage Inhibition Average 10 μM / Screening data (Relative infection to DMSO controls) Average 10 μM: SARS2, 10 μM; for Percentage Inhibition Average 25 μM / Screening data (Relative infection to DMSO controls) Average 25 μM: SARS2, 25 μM; for Percentage Inhibition Average 50 μM / Screening data (Relative infection to DMSO controls) Average 50 μM: SARS2, 50 μM; for Average (relative infection to DMSO over the 5 tested concentrations): SARS2, average over 1 to 50 uM; for Infection Data: Percentage Infection Relative to Appropriate DMSO Control: avg background subtraction, replicate wells; for Infection Data: Average, Mean: average of Exp 1-3 (SMW475, SMW477, SMW478), n 9
[2] = system: cells (nuclei count); conditions: for Toxicity Data, Average, Mean (percentage relative to appropriate DMSO control): average of Exp 1 and Exp 2, n=4; for Relative cell count to DMSO controls, Average 1 μM / Relative cell count to DMSO controls, Average 5 μM / Relative cell count to DMSO controls, Average 10 μM / Relative cell count to DMSO controls, Average 25 μM / Relative cell count to DMSO controls, Average 50 μM: toxicity data, 100=DMSO control; for Relative cell count to DMSO controls, Average (for correlation analysis): average value over the 5 tested concentrations (1 to 50 uM); for Toxicity Data: Average, Mean: average of Exp 1-3 (SMW475, SMW477, SMW478), n 9

CC1=C(C(=O)NC2CCCCCC2)C(c2cccs2)NC(=O)N1 (stereo not drawn) [SILCS61]
Infection Data, Percentage Infection Relative to Appropriate DMSO Control with Avg Background Subtraction ([1]; 1 uM, Exp 1 (SMW506)): 73.61% and 82.18%
Infection Data, Percentage Infection Relative to Appropriate DMSO Control with Avg Background Subtraction ([1]; 1 uM, Exp 2 (SMW492), SILCS 61-66 and 67-72 plates): 57.97% and 58.62%
Infection Data, Average, Mean (Percentage Infection Relative to Appropriate DMSO Control) ([1]; 1 uM): 68.10%
Infection Data, Percentage Infection Relative to Appropriate DMSO Control with Avg Background Subtraction ([1]; 5 uM, Exp 1 (SMW506)): 41.43% and 63.29%
Infection Data, Percentage Infection Relative to Appropriate DMSO Control with Avg Background Subtraction ([1]; 5 uM, Exp 2 (SMW492), SILCS 61-66 and 67-72 plates): 38.94% and 52.11%
Infection Data, Average, Mean (Percentage Infection Relative to Appropriate DMSO Control) ([1]; 5 uM): 48.94%
Infection Data, Percentage Infection Relative to Appropriate DMSO Control with Avg Background Subtraction ([1]; 10 uM, Exp 1 (SMW506)): 73.81% and 87.85%
Infection Data, Percentage Infection Relative to Appropriate DMSO Control with Avg Background Subtraction ([1]; 10 uM, Exp 2 (SMW492), SILCS 61-66 and 67-72 plates): 33.45% and 32.58%
Infection Data, Average, Mean (Percentage Infection Relative to Appropriate DMSO Control) ([1]; 10 uM): 56.92%
Infection Data, Percentage Infection Relative to Appropriate DMSO Control with Avg Background Subtraction ([1]; 25 uM, Exp 1 (SMW506)): 51.60% and 90.77%
Infection Data, Average, Mean (Percentage Infection Relative to Appropriate DMSO Control) ([1]; 25 uM): 43.41%
Infection Data, Percentage Infection Relative to Appropriate DMSO Control with Avg Background Subtraction ([1]; 50 uM, Exp 1 (SMW506)): −4.48% and −4.80%
Infection Data, Percentage Infection Relative to Appropriate DMSO Control with Avg Background Subtraction ([1]; 50 uM, Exp 2 (SMW492), SILCS 61-66 and 67-72 plates): 11.69% and 10.06%
Infection Data, Average, Mean (Percentage Infection Relative to Appropriate DMSO Control) ([1]; 50 uM): 3.12%
Percentage Inhibition Average 1 μM [1]: 31.90%
Screening data (Relative infection to DMSO controls) Average 1 μM [1]: 68.10
Percentage Inhibition Average 5 μM [1]: 51.06%
Screening data (Relative infection to DMSO controls) Average 5 μM [1]: 48.94
Percentage Inhibition Average 10 μM [1]: 43.08%
Screening data (Relative infection to DMSO controls) Average 10 μM [1]: 56.92
Percentage Inhibition Average 25 μM [1]: 56.59%
Screening data (Relative infection to DMSO controls) Average 25 μM [1]: 43.41
Percentage Inhibition Average 50 μM [1]: 96.88%
Screening data (Relative infection to DMSO controls) Average 50 μM [1]: 3.12
Average (relative infection to DMSO over the 5 tested concentrations) [1]: 44.10
Toxicity Data, Average, Mean (percentage relative to appropriate DMSO control) ([2]; 1 uM): 106.46%
Relative cell count to DMSO controls, Average 1 μM [2]: 106.46
Toxicity Data, Average, Mean (percentage relative to appropriate DMSO control) ([2]; 5 uM): 110.71%
Relative cell count to DMSO controls, Average 5 μM [2]: 110.71
Toxicity Data, Average, Mean (percentage relative to appropriate DMSO control) ([2]; 10 uM): 107.86%
Relative cell count to DMSO controls, Average 10 μM [2]: 107.86
Toxicity Data, Average, Mean (percentage relative to appropriate DMSO control) ([2]; 25 uM): 109.52%
Relative cell count to DMSO controls, Average 25 μM [2]: 109.52
Toxicity Data, Average, Mean (percentage relative to appropriate DMSO control) ([2]; 50 uM): 104.46%
Relative cell count to DMSO controls, Average 50 μM [2]: 104.46
Relative cell count to DMSO controls, Average (for correlation analysis) [2]: 107.80

CN(C)CCN(Cc1ccsc1)Cc1ccc(CO)o1 [SILCS9]
Percentage Infection Relative to DMSO Control, Average, Mean [1]: 95.98% and 111.45% and 120.58% and 120.66% and 113.21%
SARS2 antiviral activity [1]: significant loss of activity
Percentage Inhibition Average 1 μM [1]: −13.21%
Screening data (Relative infection to DMSO controls) Average 1 μM [1]: 113.21
Percentage Inhibition Average 5 μM [1]: −20.66%
Screening data (Relative infection to DMSO controls) Average 5 μM [1]: 120.66
Percentage Inhibition Average 10 μM [1]: −20.58%
Screening data (Relative infection to DMSO controls) Average 10 μM [1]: 120.58
Percentage Inhibition Average 25 μM [1]: −11.45%
Screening data (Relative infection to DMSO controls) Average 25 μM [1]: 111.45
Percentage Inhibition Average 50 μM [1]: 4.02%
Screening data (Relative infection to DMSO controls) Average 50 μM [1]: 95.98
Average (relative infection to DMSO over the 5 tested concentrations) [1]: 112.38
Relative cell count to DMSO controls, Average 1 μM [2]: 105.37
Relative cell count to DMSO controls, Average 5 μM [2]: 103.56
Relative cell count to DMSO controls, Average 10 μM [2]: 111.19
Relative cell count to DMSO controls, Average 25 μM [2]: 92.21
Relative cell count to DMSO controls, Average 50 μM [2]: 60.67
Toxicity Data, Average, Mean (relative to DMSO control) ([2]; Average of Exp 1-3, 1 uM): 105.37%
Toxicity Data, Average, Mean (relative to DMSO control) ([2]; Average of Exp 1-3, 5 uM): 103.56%
Toxicity Data, Average, Mean (relative to DMSO control) ([2]; Average of Exp 1-3, 10 uM): 111.19%
Toxicity Data, Average, Mean (relative to DMSO control) ([2]; Average of Exp 1-3, 25 uM): 92.21%
Toxicity Data, Average, Mean (relative to DMSO control) ([2]; Average of Exp 1-3, 50 uM): 60.67%
Relative cell count to DMSO controls, Average (for correlation analysis) [2]: 94.60

Cc1csc(CN(CCN(C)C)Cc2ccco2)c1 [SILCS17]
Infection Data: Percentage Infection Relative to Appropriate DMSO Control ([1]; 1 uM, Exp 1 (SMW475)): 78.55% and 85.49% and 89.26%
Infection Data: Percentage Infection Relative to Appropriate DMSO Control ([1]; 1 uM, Exp 2 (SMW477)): 101.46% and 156.03% and 155.63%
Infection Data: Percentage Infection Relative to Appropriate DMSO Control ([1]; 1 uM, Exp 3 (SMW478)): 90.81% and 93.25% and 105.34%
Infection Data: Average, Mean ([1]; 1 uM): 106.20%
Infection Data: Percentage Infection Relative to Appropriate DMSO Control ([1]; 5 uM, Exp 1 (SMW475)): 86.61% and 84.44% and 77.45%
Infection Data: Percentage Infection Relative to Appropriate DMSO Control ([1]; 5 uM, Exp 2 (SMW477)): 142.87% and 172.05% and 157.06%
Infection Data: Percentage Infection Relative to Appropriate DMSO Control ([1]; 5 uM, Exp 3 (SMW478)): 97.85% and 101.86% and 101.30%
Infection Data: Average, Mean ([1]; 5 uM): 113.50%
Infection Data: Percentage Infection Relative to Appropriate DMSO Control ([1]; 10 uM, Exp 1 (SMW475)): 75.56% and 86.80% and 108.19%
Infection Data: Percentage Infection Relative to Appropriate DMSO Control ([1]; 10 uM, Exp 2 (SMW477)): 130.54% and 160.59% and 172.84%
Infection Data: Percentage Infection Relative to Appropriate DMSO Control ([1]; 10 uM, Exp 3 (SMW478)): 90.38% and 97.98% and 103.28%
Infection Data: Average, Mean ([1]; 10 uM): 114.02%
Infection Data: Percentage Infection Relative to Appropriate DMSO Control ([1]; 25 uM, Exp 1 (SMW475)): 41.54% and 68.32% and 68.68%
Infection Data: Percentage Infection Relative to Appropriate DMSO Control ([1]; 25 uM, Exp 2 (SMW477)): 38.35% and 67.19% and 82.12%
Infection Data: Percentage Infection Relative to Appropriate DMSO Control ([1]; 25 uM, Exp 3 (SMW478)): 68.44% and 109.27% and 278.92%
Infection Data: Average, Mean ([1]; 25 uM): 91.43%
Infection Data: Percentage Infection Relative to Appropriate DMSO Control ([1]; 50 uM, Exp 1 (SMW475)): 15.74% and 49.90% and 30.92%
Infection Data: Percentage Infection Relative to Appropriate DMSO Control ([1]; 50 uM, Exp 2 (SMW477)): 11.74% and 25.42% and 30.96%
Infection Data: Percentage Infection Relative to Appropriate DMSO Control ([1]; 50 uM, Exp 3 (SMW478)): 20.44% and 62.60% and 81.13%
Infection Data: Average, Mean ([1]; 50 uM): 36.54%
Percentage Inhibition Average 1 μM [1]: −6.20%
Screening data (Relative infection to DMSO controls) Average 1 μM [1]: 106.20
Percentage Inhibition Average 5 μM [1]: −13.50%
Screening data (Relative infection to DMSO controls) Average 5 μM [1]: 113.50
Percentage Inhibition Average 10 μM [1]: −14.02%
Screening data (Relative infection to DMSO controls) Average 10 μM [1]: 114.02
Percentage Inhibition Average 25 μM [1]: 8.57%
Screening data (Relative infection to DMSO controls) Average 25 μM [1]: 91.43
Percentage Inhibition Average 50 μM [1]: 63.46%
Screening data (Relative infection to DMSO controls) Average 50 μM [1]: 36.54
Average (relative infection to DMSO over the 5 tested concentrations) [1]: 92.34
Toxicity Data: Average, Mean ([2]; 1 uM): 96.29%
Relative cell count to DMSO controls, Average 1 μM [2]: 96.29
Toxicity Data: Average, Mean ([2]; 5 uM): 89.17%
Relative cell count to DMSO controls, Average 5 μM [2]: 89.17
Toxicity Data: Average, Mean ([2]; 10 uM): 88.87%
Relative cell count to DMSO controls, Average 10 μM [2]: 88.87
Toxicity Data: Average, Mean ([2]; 25 uM): 75.47%
Relative cell count to DMSO controls, Average 25 μM [2]: 75.47
Toxicity Data: Average, Mean ([2]; 50 uM): 53.52%
Relative cell count to DMSO controls, Average 50 μM [2]: 53.52
Relative cell count to DMSO controls, Average (for correlation analysis) [2]: 80.66
